Results: patent US10975116B2, “Methods of treating and preventing gastrointestinal motility disorders using aminosterols” (Enterin, Inc., priority 2013, dated 2021)
Entries after “also recorded” stand apart in the source; their conditions may differ. Where two headings read alike, the source gives them in different places.

Experiments:
[1] = system: mesenteric nerve; experiment: Mesenteric nerve multiunit recording after intraluminal squalamine in colon; type: in vivo, mouse
Text: Under appropriate and approved anesthesia, the distal colon of a mouse was externalized from the abdomen, along with the mesentary. The mesenteric blood vessels and lymphatics were carefully dissected from the mesenteric nerve, a structure that contains both the vagus (efferent and afferent) and spinal afferents. The nerve was cut, and the free end (which receives signals from the gut) was introduced into a capillary housing a silver electrode, along with the appropriate electronics required to detect and amplify weak electrical signals pulsing from the gut through the mesenteric nerve. […] Concentrations of 3, 10, 30 and 100 μM squalamine were evaluated. Responses to squalamine application were discernible at 30 μM but robust and reproducible responses were first evident at 100 μM. […] Paired experiments were comparisons of average discharge rates of a control recording period with a three-minute period during the peak response to squalamine. Statistical comparisons were made using paired t-tests. Squalamine increased the background firing rate from (mean±SD) 2.0±1.2 to 5.2±3.1 Hz (P=0.03). The latency to the onset of the firing increase was 4.4±4.1 min, while the latency to peak of the firing rate increase 12±7.5 min (FIG. 1).

[2] = system: Irritable Bowel Syndrome (IBS); experiment: Oral squalamine in Irritable Bowel Syndrome, single subject; type: in vivo, human
Text: A person, in otherwise good health, was suffering from the “mixed” form of IBS since early childhood. The condition was characterized by a failure to feel “cleared” after the passage of a stool; occasional crampiness; abdominal bloating and a sense of “fullness.” The condition caused them to be “conscious of their bowels” throughout the day, and frequently interrupted their sleep. Attempts to relieve themself on the toilet would generally be ineffective, leaving them with the feeling of “still having to go.”
On day 1 the individual was administered a single 200 mg capsule of squalamine, orally, on an empty stomach with water. Within 2 hrs they experienced nausea, at 3 hrs they vomited, followed soon after by the passage of about 200 ml of clear discharge rectally. By 3.5 hrs the nausea had passed. They ate normally at lunch and dinner. […] Slept better than they had in many years. The first stool was passed on Day 4, was soft and passed easily, and then successively on Days 5, 6, 7, and 8. Beginning at Day 6, they began to experience the prior GI symptoms. By Day 8, their usual GI symptoms had returned.
A second dosing trial was begun on Day 15, with a 50 mg capsule administered. […] Bowel movement was passed on Day 17. A 25 mg capsule was administered on Day 19. […] It was assumed that 50 mg dosed every other day was an optimum regimen. The individual remained on a dosing schedule of 50 mg orally every other day.

[3] = system: Parkinson's-like syndrome; experiment: Oral squalamine in Parkinson's-like syndrome without GI disorders, single subject; type: in vivo, human
Text: The individual was a person. They were a psychiatrist specializing in addiction. Movement disorder began. Original diagnosis was multiple sclerosis. Presenting symptoms were depression and difficulty in controlling the action of sitting in chair. They would “plop” onto a sit without braking the movement. […] Treatment with L-DOPA caused some correction of the sitting difficulty, leading to the presumptive diagnosis of Parkinson's disease. Therapy continued with increasing doses of Sinemet, followed by addition of ropinirole. Deterioration continued (despite an L-DOPA dose exceeding 10-11 pills/day), ropinirole (5×2 mg and 4×1 mg, daily) and amantadine was added. They were on Wellbutryn for depression. There had been no history of GI disorders, and bowel function was said to be normal.
The individual lived at home with a spouse and 2 children. They had to be driven to work. Walking was unsteady. Their speech was nearly incomprehensible. Face was mask-like. No obvious tremors. Walking was hesitant. Subject had fallen (or tripped) several times previously and used a cane.

[4] = system: endometrial cancer; experiment: Oral squalamine in endometrial cancer, single subject; type: in vivo, human
Protocol: A person presented with abdominal discomfort and the presence of a palpable abdominal mass. […] Surgical removal of the uterus and ovaries was followed by chemotherapy. Subsequently, a large tumor adherent to the distal colon was discovered, along with additional nodes. A colonic resection was performed along with local radiation to the peritoneum.
The individual decided to stop all chemotherapy due to progression of the cancer and the adverse reactions previously experienced. The subject began oral squalamine in capsule form in August 2012. […] The dose of squalamine was raised to 100 mg/day in two divided doses. In October 2013, the tumor adjacent to the ureter was irradiated. […] The individual remains on squalamine 100 mg/day. They are in otherwise excellent health.

[5] = system: Parkinson's disease; experiment: Oral squalamine in Parkinson's disease with constipation, single subject; type: in vivo, human
Protocol: A person, in otherwise good health, presented with Parkinson's disease of about 5 yrs duration. They were severely constipated and suffered from frequent episodes of cramping. These GI symptoms were similar to that described in Parkinson's and could not be alleviated medically or through dietary adjustment. Their medications included 5 L-DOPA/DDC caps/day and 1-2 Requip before bedtime. Their neurological status at this time was as follows, as determined about 1 hour after an L-DOPA dosing, a time point when they appear to be repleted with dopamine: • Slow walking with shuffling . . . need to squat intermittently • Articulation poor . . . difficult to understand their speech . . . halting • Use of utensils while eating involved slow, awkward movements • Face seemed a bit mask like; unconsciously made chewing movements • Cognitive function (memory, wit) was less than observed 3 months prior • Balance was unsteady • Mood was depressed • Swallowing noted to be difficult at times • Chewing food was slow • Handwriting was small
Began oral dosing with 200 mg capsule of squalamine on Day 1. Capsule was taken in the AM before breakfast, along with L-DOPA. […] 200 mg cap on day 2 provoked a watery diarrhea at 2 hrs after dosing, but discharge subsided by day 3 dosing. On day 13, subsequent dosing was maintained at 200 mg every other day, with some minor degree of nausea. No watery discharge. At about Day 30 the subject was switched to 100 mg every other day, and remained on this regimen for about 9.5 months.

[6] = cited from earlier work; for oral bioavailability: animals (rodents; mice and dogs)
[7] = 100 μM intraluminal, 5 experiments
[8] = intraluminal, 3, 10, 30 and 100 μM evaluated
[9] = single 200 mg capsule Day 1, empty stomach

Substance: squalamine
- latency to peak of the firing rate increase [1, 7]: 12 ± 7.5 min
- latency to the onset of the firing increase [1, 7]: 4.4 ± 4.1 min
- mesenteric nerve multiunit firing rate at peak response (mean±SD) ([1]; 100 μM intraluminal, 5 experiments, background 2.0±1.2 Hz, P=0.03): 5.2±3.1 Hz
- effect on mesenteric nerve firing frequency (FIGS. 1A-1C) ([1]; intraluminal squalamine): increases mesenteric nerve firing frequency
- concentration at which responses were discernible [1, 8]: 30 µM
- concentration at which robust and reproducible responses were first evident [1, 8]: 100 µM
- response to 25 mg capsule ([2]; 25 mg capsule on Day 19): By Day 21 the previous symptoms of IBS were returning
- response to 50 mg capsule ([2]; 50 mg capsule on Day 15): Neither nausea nor a discharge was experienced; also recorded: Sense of bowel quiet was experienced
- IBS status on maintenance dosing ([2]; 50 mg orally every other day, at 10 months): no longer experiences symptoms of IBS; also recorded: Bowel movements are of normal consistency; also recorded: Sleep is no longer interrupted by urgency to defecate
- nausea had passed, time after dosing [2, 9]: ≤ 3.5 h
- volume of clear discharge passed rectally [2, 9]: about 200 ml
- vomiting, time after dosing [2, 9]: 3 h
- nausea, time of onset after dosing ([2]; single 200 mg capsule Day 1, empty stomach, person with mixed IBS): ≤ 2 h
- first stool passed ([2]; single 200 mg capsule on Day 1): Day 4
- period of bowel quiet without cramping or urgency ([2]; single 200 mg capsule on Day 1): Day 1 through Day 5
- return of usual GI symptoms ([2]; single 200 mg capsule on Day 1): Day 8
- Observations ([3]; Day 1, 100 mg cap): No obvious GI response. Continued
- Observations ([3]; Day 21, 100 mg every other day, then began 200 mg every other day): articulation had become noticeably better; also recorded: improving and their energy level was increasing
- Observations ([3]; Month 3, subject ran out of squalamine 2 weeks prior (cessation)): worst constipation they had ever remembered.”; also recorded: that he “was not feeling as good”
- Observations ([3]; Month 5, 100 mg every other day raised to 200 mg every day at month 5.5): mg every day at month 5.5. No GI; also recorded: colleagues noted improvement. Took; also recorded: several falls which they attributed
- Observations ([3]; Month 6, 200 mg every day): Individual could compensate being pulled; also recorded: told me that they felt their balance had improved; also recorded: Still had difficulty initiating; also recorded: No tremor; also recorded: Voice was of low; also recorded: volume. Face was still mask-like; also recorded: Once moving subject walked without; also recorded: Medication dosing had not changed
- PET/CT, metastases ([4]; 100 mg/day in two divided doses, February 2013 as printed): no additional metasteses were observed
- tumor status ([4]; July 2013, before dose raised to 100 mg/day): a small tumor appeared adjacent to the right ureter, and a second attached to the left descending colon
- PET/CT imaging ([4]; oral capsules from August 2012, by March 2013): no evidence of malignancy was visible
- watery diarrhea, time after dosing ([5]; 200 mg cap on day 2): 2 h
- GI response to first dose ([5]; 200 mg capsule Day 1, AM before breakfast, with L-DOPA): No nausea experienced nor watery discharge; also recorded: Passed several moist stools
- Observations ([5]; 3 Weeks, 200 mg, from day 13 every other day): Mood seems to have improved; also recorded: Some shaking even after L-DOPA; also recorded: Bowels improved considerably; also recorded: Walking more comfortably, but still uneven; also recorded: Subject feels breathing is easier; also recorded: Articulation much improved
- resolution of constipation ([5]; oral squalamine 200 mg regimen): Constipation resolved within several weeks
- absorption from the gastrointestinal tract ([6]; extensive studies in animals): neither squalamine nor Aminosterol 1436 can be absorbed to any extent
- oral bioavailability [6]: low bioavailability
- oral bioavailability ([6]; listed as squalamine lactate): poorly bioavailable orally
- absorption by the subcutaneous and intraperitoneal routes ([6]; rodents): well absorbed
